Reference: ChEMBL document CHEMBL3885881, “DrugMatrix”

What was measured:
Rattus norvegicus [1] = species on record: Rattus norvegicus; assay: DrugMatrix - Regimen: Daily Repeat; format: toxicity, organism-based, Sprague-Dawley; parameters: regimen Daily Repeat, gender Male, age 6-8 weeks; settings: in vivo, po, 1200 mg/kg, route oral GAVAGE, dose level High, vehicle .5 % CMC
Rattus norvegicus [2] = species on record: Rattus norvegicus; format: toxicity, organism-based, Sprague-Dawley; settings: in vivo, po, 1200 mg/kg, 24 h, route oral GAVAGE, dose level High, time 1 day, vehicle .5 % CMC
Description: DrugMatrix - Regimen: Single

[3] = […], tissue Plasma, time 14 day

**Q.** What does the source list for Nc1ccc(Cl)cc1[N+](=O)[O-] [4-CHLORO-2-NITROANILINE]?
**A.** URIC ACID (Rattus norvegicus [1]; 120 h, tissue Plasma, time 5 day): 1.5 mg/dL; ABSOLUTE BASOPHIL (Rattus norvegicus [1]; […], tissue Blood, time 14 day): 0 CELLS/uL; ABSOLUTE EOSINOPHIL (Rattus norvegicus [1]; […], tissue Blood, time 14 day): 305.4 CELLS/uL; ABSOLUTE LYMPHOCYTE (Rattus norvegicus [1]; […], tissue Blood, time 14 day): 16745.4 CELLS/uL; ABSOLUTE MONOCYTE (Rattus norvegicus [1]; […], tissue Blood, time 14 day): 700 CELLS/uL; ABSOLUTE SEGMENTED NEUTROPHIL (Rattus norvegicus [1]; […], tissue Blood, time 14 day): 2009.2 CELLS/uL; BASOPHIL (Rattus norvegicus [1]; […], tissue Blood, time 14 day): 0%; EOSINOPHIL (Rattus norvegicus [1]; […], tissue Blood, time 14 day): 1.6%; ERYTHROCYTE COUNT (Rattus norvegicus [1]; […], tissue Blood, time 14 day): 6.12 x10E6/uL; HEMATOCRIT (Rattus norvegicus [1]; […], tissue Blood, time 14 day): 34.88%; HEMOGLOBIN (Rattus norvegicus [1]; […], tissue Blood, time 14 day): 12.64 G/DL; LEUKOCYTE COUNT (Rattus norvegicus [1]; […], tissue Blood, time 14 day): 19.76 x10E3/uL; LYMPHOCYTE (Rattus norvegicus [1]; […], tissue Blood, time 14 day): 84.4%; MEAN CORPUSCULAR HEMOGLOBIN (Rattus norvegicus [1]; […], tissue Blood, time 14 day): 20.64 pg; MEAN CORPUSCULAR HEMOGLOBIN CONCENTRATION (Rattus norvegicus [1]; […], tissue Blood, time 14 day): 36.24 G/DL; MEAN CORPUSCULAR VOLUME (Rattus norvegicus [1]; […], tissue Blood, time 14 day): 56.98 fL; MONOCYTE (Rattus norvegicus [1]; […], tissue Blood, time 14 day): 3.4%; NEUTROPHIL (Rattus norvegicus [1]; […], tissue Blood, time 14 day): 10.6%; NUCLEATED RED BLOOD CELLS (Rattus norvegicus [1]; […], tissue Blood, time 14 day): 0 /100WBC; PLATELET COUNT (Rattus norvegicus [1]; […], tissue Blood, time 14 day): 1103.4 x10E3/uL; ALANINE AMINOTRANSFERASE (Rattus norvegicus [1]; [3]): 58.8 u/L; ALBUMIN (Rattus norvegicus [1]; [3]): 4.18 G/DL; ALKALINE PHOSPHATASE (Rattus norvegicus [1]; [3]): 347.4 u/L; ASPARTATE AMINOTRANSFERASE (Rattus norvegicus [1]; [3]): 113.2 u/L; BLOOD UREA NITROGEN (Rattus norvegicus [1]; [3]): 20 mg/dL; CARBON DIOXIDE (Rattus norvegicus [1]; [3]): 28 mmol/L; CHLORIDE (Rattus norvegicus [1]; [3]): 100.8 MEQ/L; CHOLESTEROL (Rattus norvegicus [1]; [3]): 80.8 mg/dL; CREATININE (Rattus norvegicus [1]; [3]): 0.27 mg/dL; GLUCOSE (Rattus norvegicus [1]; [3]): 164.4 mg/dL; LACTATE DEHYDROGENASE (Rattus norvegicus [1]; [3]): 192 u/L; LIPASE (Rattus norvegicus [1]; [3]): 10.8 u/L; PHOSPHORUS (Rattus norvegicus [1]; [3]): 12.48 mg/dL; POTASSIUM (Rattus norvegicus [1]; [3]): 6.05 MEQ/L; SODIUM (Rattus norvegicus [1]; [3]): 146.34 MEQ/L; TOTAL BILIRUBIN (Rattus norvegicus [1]; [3]): 0.3 mg/dL; TOTAL PROTEIN (Rattus norvegicus [1]; [3]): 6.3 G/DL; URIC ACID (Rattus norvegicus [1]; [3]): 1.32 mg/dL; ABSOLUTE EOSINOPHIL (Rattus norvegicus [2]; tissue Blood): 51.67 CELLS/uL; ABSOLUTE LYMPHOCYTE (Rattus norvegicus [2]; tissue Blood): 11963.33 CELLS/uL; ABSOLUTE MONOCYTE (Rattus norvegicus [2]; tissue Blood): 476.67 CELLS/uL; ABSOLUTE SEGMENTED NEUTROPHIL (Rattus norvegicus [2]; tissue Blood): 1508.33 CELLS/uL; BASOPHIL (Rattus norvegicus [2]; tissue Blood): 0%; EOSINOPHIL (Rattus norvegicus [2]; tissue Blood): 0.33%; ERYTHROCYTE COUNT (Rattus norvegicus [2]; tissue Blood): 5.85 x10E6/uL; HEMATOCRIT (Rattus norvegicus [2]; tissue Blood): 35.7%; HEMOGLOBIN (Rattus norvegicus [2]; tissue Blood): 12.97 G/DL; LEUKOCYTE COUNT (Rattus norvegicus [2]; tissue Blood): 14 x10E3/uL; LYMPHOCYTE (Rattus norvegicus [2]; tissue Blood): 85.67%; MEAN CORPUSCULAR HEMOGLOBIN (Rattus norvegicus [2]; tissue Blood): 22.17 pg; MEAN CORPUSCULAR HEMOGLOBIN CONCENTRATION (Rattus norvegicus [2]; tissue Blood): 36.3 G/DL; MEAN CORPUSCULAR VOLUME (Rattus norvegicus [2]; tissue Blood): 61.07 fL; MONOCYTE (Rattus norvegicus [2]; tissue Blood): 3.33%; NEUTROPHIL (Rattus norvegicus [2]; tissue Blood): 10.67%; NUCLEATED RED BLOOD CELLS (Rattus norvegicus [2]; tissue Blood): 0 /100WBC; PLATELET COUNT (Rattus norvegicus [2]; tissue Blood): 1137 x10E3/uL; ALANINE AMINOTRANSFERASE (Rattus norvegicus [2]; tissue Plasma): 71.67 u/L; ALBUMIN (Rattus norvegicus [2]; tissue Plasma): 4.2 G/DL; ALKALINE PHOSPHATASE (Rattus norvegicus [2]; tissue Plasma): 484 u/L; ASPARTATE AMINOTRANSFERASE (Rattus norvegicus [2]; tissue Plasma): 114 u/L; BLOOD UREA NITROGEN (Rattus norvegicus [2]; tissue Plasma): 15 mg/dL; CARBON DIOXIDE (Rattus norvegicus [2]; tissue Plasma): 23.33 mmol/L; CHLORIDE (Rattus norvegicus [2]; tissue Plasma): 101.33 MEQ/L; CHOLESTEROL (Rattus norvegicus [2]; tissue Plasma): 86.33 mg/dL; CREATININE (Rattus norvegicus [2]; tissue Plasma): 0.27 mg/dL; GLUCOSE (Rattus norvegicus [2]; tissue Plasma): 219 mg/dL; LACTATE DEHYDROGENASE (Rattus norvegicus [2]; tissue Plasma): 411.33 u/L; LIPASE (Rattus norvegicus [2]; tissue Plasma): 10 u/L; PHOSPHORUS (Rattus norvegicus [2]; tissue Plasma): 14.33 mg/dL; POTASSIUM (Rattus norvegicus [2]; tissue Plasma): 6.09 MEQ/L; SODIUM (Rattus norvegicus [2]; tissue Plasma): 142.83 MEQ/L; TOTAL BILIRUBIN (Rattus norvegicus [2]; tissue Plasma): 0.2 mg/dL; TOTAL PROTEIN (Rattus norvegicus [2]; tissue Plasma): 6.2 G/DL; URIC ACID (Rattus norvegicus [2]; tissue Plasma): 2.73 mg/dL
